Activity calls are given as the source filed them. The rule behind the calls is not given here.
Legend:
Type in all cases: functional
[1] = Cytotoxicity against human SF295 cells at 10 uM after 48 hrs by SRB assay; details: SF-295, 48 h, read-out: GI
[2] = Cytotoxicity against human SW620 cells at 10 uM after 48 hrs by SRB assay; details: SW-620, 48 h, read-out: GI
U-251 = assay: Cytotoxicity against human U251 cells at 10 uM after 48 hrs by SRB assay; details: U-251, 48 h, read-out: GI
NCI-H322M = assay: Cytotoxicity against human NCI-H322M cells at 10 uM after 48 hrs by SRB assay
[3] = Cytotoxicity against human OVCAR3 cells at 10 uM after 48 hrs by SRB assay; details: OVCAR-3, 48 h, read-out: GI
[4] = Cytotoxicity against human HCT15 cells at 10 uM after 48 hrs by SRB assay; details: HCT-15, 48 h, read-out: GI
LOX IMVI = assay: Cytotoxicity against human LOXIMVI cells at 10 uM after 48 hrs by SRB assay
IGROV-1 = assay: Cytotoxicity against human IGROV1 cells at 10 uM after 48 hrs by SRB assay
OVCAR-4 = assay: Cytotoxicity against human OVCAR4 cells at 10 uM after 48 hrs by SRB assay
MDA-MB-231 = assay: Cytotoxicity against human MDA-MB-231 cells at 10 uM after 48 hrs by SRB assay; details: MDA-MB-231, 48 h, read-out: GI
[5] = Cytotoxicity against human MOLT4 cells at 10 uM after 48 hrs by SRB assay; details: MOLT-4, 48 h, read-out: GI
786-0 = assay: Cytotoxicity against human 786-0 cells at 10 uM after 48 hrs by SRB assay; details: 786-0, 48 h, read-out: GI
[6] = Cytotoxicity against human SNB19 cells at 10 uM after 48 hrs by SRB assay; details: SNB-19, 48 h, read-out: GI
CAKI-1 = assay: Cytotoxicity against human Caki1 cells at 10 uM after 48 hrs by SRB assay
[7] = Cytotoxicity against human SNB75 cells at 10 uM after 48 hrs by SRB assay; details: SNB-75, 48 h, read-out: GI
[8] = Cytotoxicity against human UO31 cells at 10 uM after 48 hrs by SRB assay; details: UO-31, 48 h, read-out: GI
HCC 2998 = assay: Cytotoxicity against human HCC2998 cells at 10 uM after 48 hrs by SRB assay
SF-268 = assay: Cytotoxicity against human SF268 cells at 10 uM after 48 hrs by SRB assay
[9] = Cytotoxicity against human HOP62 cells at 10 uM after 48 hrs by SRB assay; details: HOP-62, 48 h, read-out: GI
TK-10 = assay: Cytotoxicity against human TK10 cells at 10 uM after 48 hrs by SRB assay
KM12 = assay: Cytotoxicity against human KM12 cells at 10 uM after 48 hrs by SRB assay; details: KM12, 48 h, read-out: GI
[10] = Cytotoxicity against human BT549 cells at 10 uM after 48 hrs by SRB assay; details: BT-549, 48 h, read-out: GI
A549 = assay: Cytotoxicity against human A549 cells at 10 uM after 48 hrs by SRB assay; details: A549, 48 h, read-out: GI
[11] = Cytotoxicity against human UACC62 cells at 10 uM after 48 hrs by SRB assay; details: UACC-62, 48 h, read-out: GI
UACC-257 = assay: Cytotoxicity against human UACC257 cells at 10 uM after 48 hrs by SRB assay
[12] = Cytotoxicity against human OVCAR8 cells at 10 uM after 48 hrs by SRB assay; details: OVCAR-8, 48 h, read-out: GI
[13] = Cytotoxicity against human SF539 cells at 10 uM after 48 hrs by SRB assay; details: SF-539, 48 h, read-out: GI
[14] = Cytotoxicity against human RXF393 cells at 10 uM after 48 hrs by SRB assay; details: RXF 393, 48 h, read-out: GI
SK-MEL-28 = assay: Cytotoxicity against human SK-MEL-28 cells at 10 uM after 48 hrs by SRB assay
A498 = assay: Cytotoxicity against human A498 cells at 10 uM after 48 hrs by SRB assay; details: A498, 48 h, read-out: GI
[15] = Cytotoxicity against human Hs 578T cells at 10 uM after 48 hrs by SRB assay; details: read-out: GI
K562 = assay: Cytotoxicity against human K562 cells at 10 uM after 48 hrs by SRB assay; details: K562, 48 h, read-out: GI
[16] = Cytotoxicity against human RPMI8226 cells at 10 uM after 48 hrs by SRB assay; details: RPMI-8226, 48 h, read-out: GI
[17] = Cytotoxicity against human COLO205 cells at 10 uM after 48 hrs by SRB assay; details: COLO 205, 48 h, read-out: GI
MCF7 = assay: Cytotoxicity against human MCF7 cells at 10 uM after 48 hrs by SRB assay; details: MCF7, 48 h, read-out: GI
SK-OV-3 = assay: Cytotoxicity against human SKOV3 cells at 10 uM after 48 hrs by SRB assay
SN12C = assay: Cytotoxicity against human SN12C cells at 10 uM after 48 hrs by SRB assay; details: read-out: GI
NCI-H522 = assay: Cytotoxicity against human NCI-H522 cells at 10 uM after 48 hrs by SRB assay; details: NCI-H522, 48 h, read-out: GI
CCRF-CEM = assay: Cytotoxicity against human CCRF-CEM cells at 10 uM after 48 hrs by SRB assay; details: read-out: GI
[18] = Cytotoxicity against human PC3 cells at 10 uM after 48 hrs by SRB assay; details: PC-3, 48 h, read-out: GI
[19] = Cytotoxicity against human HOP92 cells at 10 uM after 48 hrs by SRB assay; details: HOP-92, 48 h, read-out: GI
[20] = Cytotoxicity against human NCI-ADR-RES cells at 10 uM after 48 hrs by SRB assay; details: read-out: GI
DU-145 = assay: Cytotoxicity against human DU145 cells at 10 uM after 48 hrs by SRB assay
Malme-3M = assay: Cytotoxicity against human MALME-3M cells at 10 uM after 48 hrs by SRB assay; details: read-out: GI
T47D = assay: Cytotoxicity against human T47D cells at 10 uM after 48 hrs by SRB assay; details: read-out: GI
NCI-H460 = assay: Cytotoxicity against human NCI-H460 cells at 10 uM after 48 hrs by SRB assay; details: NCI-H460, 48 h, read-out: GI
M14 = assay: Cytotoxicity against human M14 cells at 10 uM after 48 hrs by SRB assay; details: M14, 48 h, read-out: GI
[21] = Cytotoxicity against human HCT116 cells at 10 uM after 48 hrs by SRB assay; details: HCT-116, 48 h, read-out: GI
MDA-MB-435 = assay: Cytotoxicity against human MDA-MB-435 cells at 10 uM after 48 hrs by SRB assay; details: MDA-MB-435, 48 h, read-out: GI
NCI-H226 = assay: Cytotoxicity against human NCI-H226 cells at 10 uM after 48 hrs by SRB assay; details: NCI-H226, 48 h, read-out: GI
SR = assay: Cytotoxicity against human SR cells at 10 uM after 48 hrs by SRB assay; details: read-out: GI
HT-29 = assay: Cytotoxicity against human HT-29 cells at 10 uM after 48 hrs by SRB assay
NCI-H23 = assay: Cytotoxicity against human NCI-H23 cells at 10 uM after 48 hrs by SRB assay; details: NCI-H23, 48 h, read-out: GI
MDA-MB-468 = assay: Cytotoxicity against human MDA-MB-468 cells at 10 uM after 48 hrs by SRB assay; details: MDA-MB-468, 48 h, read-out: GI
SK-MEL-5 = assay: Cytotoxicity against human SK-MEL-5 cells at 10 uM after 48 hrs by SRB assay; details: SK-MEL-5, 48 h, read-out: GI
ACHN = assay: Cytotoxicity against human ACHN cells at 10 uM after 48 hrs by SRB assay; details: read-out: GI

For `Cc1nc2ccc(Nc3nc(NCCO)nc(Nc4ccc(F)cc4)n3)cc2n1Cc1ccccc1`, the inhibition of growth at 10 µM [1] was 11%, the inhibition of growth at 10 µM [2] was 0.58% and the inhibition of growth at 10 µM (U-251) was 6.96%. The “growth inhibition (GI)” value (NCI-H322M) was “inactive”, the inhibition of growth at 10 µM [3] was 3.09% and the inhibition of growth at 10 µM [4] was 8.36%. For the same compound, the “growth inhibition (GI)” value (LOX IMVI) was “inactive”, the “growth inhibition (GI)” value (IGROV-1) was “inactive” and the “growth inhibition (GI)” value (OVCAR-4) was “inactive”. For the same compound, the inhibition of growth at 10 µM (MDA-MB-231) was 7.95%, the inhibition of growth at 10 µM [5] was 27.5% and the inhibition of growth at 10 µM (786-0) was 11.9%. The inhibition of growth at 10 µM [6] was 2.43%, the “growth inhibition (GI)” value (CAKI-1) was “inactive” and the inhibition of growth at 10 µM [7] was 8.89%. The inhibition of growth at 10 µM [8] was 13.2%, the “growth inhibition (GI)” value (HCC 2998) was “inactive” and the “growth inhibition (GI)” value (SF-268) was “inactive”. The inhibition of growth at 10 µM [9] was 0.23%, the “growth inhibition (GI)” value (TK-10) was “inactive” and the inhibition of growth at 10 µM (KM12) was 7.5%. It also gave an inhibition of growth at 10 µM [10] of 20.6%, an inhibition of growth at 10 µM (A549) of 13.8% and an inhibition of growth at 10 µM [11] of 6.56%. For the same compound, the “growth inhibition (GI)” value (UACC-257) was “inactive”, the inhibition of growth at 10 µM [12] was 4.04% and the inhibition of growth at 10 µM [13] was 3.59%. The inhibition of growth at 10 µM [14] was 26.1%, the “growth inhibition (GI)” value (SK-MEL-28) was “inactive” and the inhibition of growth at 10 µM (A498) was 25.3%. The inhibition of growth at 10 µM [15] was 8.56%, the inhibition of growth at 10 µM (K562) was 25.7% and the inhibition of growth at 10 µM [16] was 33.7%. The inhibition of growth at 10 µM [17] was 6.67%, the inhibition of growth at 10 µM (MCF7) was 19.8% and the “growth inhibition (GI)” value (SK-OV-3) was “inactive”. For the same compound, the inhibition of growth at 10 µM (SN12C) was 1.6%, the inhibition of growth at 10 µM (NCI-H522) was 20.4% and the inhibition of growth at 10 µM (CCRF-CEM) was 25.3%. It also gave an inhibition of growth at 10 µM [18] of 0.89%, an inhibition of growth at 10 µM [19] of 19.4% and an inhibition of growth at 10 µM [20] of 18.1%. The “growth inhibition (GI)” value (DU-145) was “inactive”, the inhibition of growth at 10 µM (Malme-3M) was 6.95% and the inhibition of growth at 10 µM (T47D) was 39.3%. The inhibition of growth at 10 µM (NCI-H460) was 4.15%, the inhibition of growth at 10 µM (M14) was 6.68% and the inhibition of growth at 10 µM [21] was 13.3%. For the same compound, the inhibition of growth at 10 µM (MDA-MB-435) was 2.54%, the inhibition of growth at 10 µM (NCI-H226) was 11.1% and the inhibition of growth at 10 µM (SR) was 28.3%. The “growth inhibition (GI)” value (HT-29) was “inactive”, the inhibition of growth at 10 µM (NCI-H23) was 6.24% and the inhibition of growth at 10 µM (MDA-MB-468) was 23%. For the same compound, the inhibition of growth at 10 µM (SK-MEL-5) was 26% and the inhibition of growth at 10 µM (ACHN) was 4.66%.

Source: ChEMBL document CHEMBL3745645, “Synthesis, in vitro antitumor activity, dihydrofolate reductase inhibition, DNA intercalation and structure-activity relationship studies of 1,3,5-triazine analogues” (Bioorg Med Chem Lett, 2016)
